In USRE35230E (priority 1994, dated 1996):

Tested on: not given
Assay: not given
Conditions: benzaldehyde cyanohydrin to benzaldehyde and hydrogen cyanide; cited from earlier work

Compound	dehydrocyanation equilibrium constant [mM]
N#CC(O)c1ccccc1 (stereo not drawn) [Benzaldehyde cyanohydrin, reference compound]	5

Tested on: (R)-oxynitrilase
Assay: Relative rates of dehydrocyanation of cyanohydrins by soluble (R)-oxynitrilase (initial rate studies)
Format: biochemical
Conditions: 0.21 mM cyanohydrin, dehydrocyanation relative to benzaldehyde cyanohydrin
Procedure: The following standardized assay was utilized to measure the activity of oxynitrilase set forth in the Examples which follow. A solution of enzyme was prepared in 0.1M (pH 5.5) citrate buffer. A 3-ml sample of enzyme solution was combined with 30 microliters of 0.21M benzaldehyde cyanohydrin and the rate of increase in absorbance at 250 nm recorded. Then, the same procedure was followed with a 3-ml sample of 0.1M (pH 5.5) citrate buffer to obtain the background, non-enzymatic, reaction. The activity in units/ml was calculated by subtracting the slope of the non-enzymatic reaction from the slope of the enzymatic reaction and converting the absorbance change with time to concentration change with time using a molar extinction coefficient of 13,200 M^-1 cm^-1.
Relative rates of dehydrocyanation of different cyanohydrins subjected to the action of the soluble catalyst (R)-oxynitrilase were determined from initial rate studies. A solution of (R)-oxynitrilase was combined with a 0.21 mM solution of cyanohydrin and the rate of increase of absorbance at the wavelength corresponding to the absorption maxima was monitored as described above in connection with the measurement of catalyst activity. The measured activity was calculated using the appropriate extinction coefficient for the corresponding aldehyde.

Compound	Relative Rate
N#CC(O)c1ccco1 (stereo not drawn) [Furfural cyanohydrin]	2.5
CC=CC(O)C#N (stereo not drawn) [Crotonaldehyde cyanohydrin]	0.90
N#CC(O)c1ccccc1 (stereo not drawn) [Benzaldehyde cyanohydrin, reference compound]	1.0
N#CC(O)c1ccc2c(c1)OCO2 (stereo not drawn) [Piperonal cyanohydrin]	2.1
N#CC(O)C=Cc1ccccc1 (stereo not drawn) [Cinnamaldehyde cyanohydrin]	0.05
Cc1ccc(C(O)C#N)o1 (stereo not drawn) [5-Methylfurfural cyanohydrin]	2.8
COc1cccc(C(O)C#N)c1 (stereo not drawn) [m-Anisaldehyde cyanohydrin]	0.19
COc1ccc(C(O)C#N)cc1 (stereo not drawn) [p-Anisaldehyde cyanohydrin]	0.17
CCc1ccc(C(O)C#N)cc1 (stereo not drawn) [p-Ethylbenzaldehyde cyanohydrin]	0.13
Cc1ccc(C(O)C#N)cc1 (stereo not drawn) [P-Tolualdehyde cyanohydrin]	0.45

Tested on: not listed separately
Assay: Permeability in supported-gas membrane system of FIG. 1
Conditions: both dehydrocyanation products approximately equal

Compound	average permeability relative to the permeability of benzaldehyde cyanohydrin
O=Cc1ccccc1 [benzaldehyde]	roughly 700 times
